Measured values as given in ChEMBL document CHEMBL1201862, “PubChem BioAssay data set” (2004).
“And” between values parts separate entries of the source, which are not always exact repeats. Equal values may be shown once. The source made the active and inactive calls.

Experiments:
[1] = target: T1, Polyadenylate-binding protein 1 (Homo sapiens, UniProt P11940); test: MLLE binding blockers, Cy5 peptide tracer – biochemical, fluorescence polarization, Cy5-PAM2 peptide, secondary, miRNA deadenylation inhibitor project, dose response (AID 602260); assay type: functional; conditions: read-out: IC50_Mean
T1 sequence (P11940 whole entry, the tested form may be a part): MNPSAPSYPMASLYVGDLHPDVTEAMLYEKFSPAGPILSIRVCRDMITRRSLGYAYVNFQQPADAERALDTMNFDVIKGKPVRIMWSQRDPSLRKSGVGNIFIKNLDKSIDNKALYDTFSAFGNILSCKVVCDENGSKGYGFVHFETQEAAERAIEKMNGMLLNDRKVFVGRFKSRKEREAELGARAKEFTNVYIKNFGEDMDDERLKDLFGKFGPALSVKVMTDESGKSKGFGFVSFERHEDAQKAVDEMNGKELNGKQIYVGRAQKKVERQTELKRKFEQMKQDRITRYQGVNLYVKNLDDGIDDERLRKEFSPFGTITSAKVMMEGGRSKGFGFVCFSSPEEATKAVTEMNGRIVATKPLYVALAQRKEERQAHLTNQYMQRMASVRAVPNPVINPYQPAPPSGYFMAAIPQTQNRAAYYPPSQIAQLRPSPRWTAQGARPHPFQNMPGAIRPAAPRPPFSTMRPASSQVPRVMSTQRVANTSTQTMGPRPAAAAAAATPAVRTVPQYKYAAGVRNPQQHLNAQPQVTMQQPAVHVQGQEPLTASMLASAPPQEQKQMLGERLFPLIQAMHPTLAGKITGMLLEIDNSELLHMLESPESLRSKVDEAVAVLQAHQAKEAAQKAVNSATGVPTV

[2] = target: T1, Polyadenylate-binding protein 1; test: MLLE domain peptide-binding blockers, IC50 – biochemical, fluorescence polarization, FITC-PAM2 peptide, dose response (AID 602259); assay type: functional; conditions: read-out: IC50_Mean
[3] = target: T2, High affinity choline transporter 1 (Homo sapiens, UniProt Q9GZV3); test: human choline transporter blockers, potency – cell-based, 5-point CRC, membrane potential dye, dose response (AID 504840); assay type: functional
T2 sequence (Q9GZV3 whole entry): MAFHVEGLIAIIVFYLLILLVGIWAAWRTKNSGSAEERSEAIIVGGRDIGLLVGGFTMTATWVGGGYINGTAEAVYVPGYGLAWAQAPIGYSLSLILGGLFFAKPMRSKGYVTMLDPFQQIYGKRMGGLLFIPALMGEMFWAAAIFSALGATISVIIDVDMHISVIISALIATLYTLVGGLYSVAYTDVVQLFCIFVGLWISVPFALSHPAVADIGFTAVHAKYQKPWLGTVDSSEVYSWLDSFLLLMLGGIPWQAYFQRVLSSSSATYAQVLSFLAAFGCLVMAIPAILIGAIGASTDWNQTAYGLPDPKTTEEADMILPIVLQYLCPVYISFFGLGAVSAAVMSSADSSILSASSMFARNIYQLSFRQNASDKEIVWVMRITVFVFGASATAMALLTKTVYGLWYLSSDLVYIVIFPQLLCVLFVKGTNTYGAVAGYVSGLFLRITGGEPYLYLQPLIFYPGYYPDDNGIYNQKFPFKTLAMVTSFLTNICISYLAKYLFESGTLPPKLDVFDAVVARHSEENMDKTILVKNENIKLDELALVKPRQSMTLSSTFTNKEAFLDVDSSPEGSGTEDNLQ

[4] = microbe, parasite or virus in culture; assay type: functional; conditions: Mycobacterium tuberculosis
[5] = target: Heat shock protein HSP 90-alpha (Homo sapiens, UniProt P07900); assay type: functional, organism-based
[6] = Luminescence Cell-Based Dose Retest to Confirm Inhibitors of Cancer Stem Cells. [Related pubchem assays (depositor defined):AID2717, AID2721]; assay type: functional; conditions: Homo sapiens
Exodeoxyribonuclease V = target: T3, Exodeoxyribonuclease V (Escherichia coli (strain K12), UniProt P04993+P07648+P08394); test: RecBCD inhibition via phage-restricted bacterial growth – absorbance, V66 E. coli, mutant T4 phage, counter-screen for AddAB inhibitor project, dose response (AID 492957); assay type: functional, cell-based, Escherichia coli str. K-12 substr. MG1655
T3 sequence (P04993 whole entry): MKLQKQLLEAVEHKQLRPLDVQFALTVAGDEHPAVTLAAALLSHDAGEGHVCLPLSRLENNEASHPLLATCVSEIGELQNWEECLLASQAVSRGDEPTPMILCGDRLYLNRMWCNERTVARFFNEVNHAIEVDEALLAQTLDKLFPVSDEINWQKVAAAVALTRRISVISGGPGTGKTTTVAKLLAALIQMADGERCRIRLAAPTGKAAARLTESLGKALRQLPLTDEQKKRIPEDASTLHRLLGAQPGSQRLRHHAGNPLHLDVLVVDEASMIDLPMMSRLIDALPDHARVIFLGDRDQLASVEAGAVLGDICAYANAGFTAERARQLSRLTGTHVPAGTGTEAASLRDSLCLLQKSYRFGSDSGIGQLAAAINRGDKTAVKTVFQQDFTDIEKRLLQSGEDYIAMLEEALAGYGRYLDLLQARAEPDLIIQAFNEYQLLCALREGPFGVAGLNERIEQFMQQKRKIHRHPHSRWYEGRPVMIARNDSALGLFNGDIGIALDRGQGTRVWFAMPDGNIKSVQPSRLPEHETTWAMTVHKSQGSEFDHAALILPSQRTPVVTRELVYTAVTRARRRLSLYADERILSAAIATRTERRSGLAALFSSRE
T3 sequence (P07648 whole entry): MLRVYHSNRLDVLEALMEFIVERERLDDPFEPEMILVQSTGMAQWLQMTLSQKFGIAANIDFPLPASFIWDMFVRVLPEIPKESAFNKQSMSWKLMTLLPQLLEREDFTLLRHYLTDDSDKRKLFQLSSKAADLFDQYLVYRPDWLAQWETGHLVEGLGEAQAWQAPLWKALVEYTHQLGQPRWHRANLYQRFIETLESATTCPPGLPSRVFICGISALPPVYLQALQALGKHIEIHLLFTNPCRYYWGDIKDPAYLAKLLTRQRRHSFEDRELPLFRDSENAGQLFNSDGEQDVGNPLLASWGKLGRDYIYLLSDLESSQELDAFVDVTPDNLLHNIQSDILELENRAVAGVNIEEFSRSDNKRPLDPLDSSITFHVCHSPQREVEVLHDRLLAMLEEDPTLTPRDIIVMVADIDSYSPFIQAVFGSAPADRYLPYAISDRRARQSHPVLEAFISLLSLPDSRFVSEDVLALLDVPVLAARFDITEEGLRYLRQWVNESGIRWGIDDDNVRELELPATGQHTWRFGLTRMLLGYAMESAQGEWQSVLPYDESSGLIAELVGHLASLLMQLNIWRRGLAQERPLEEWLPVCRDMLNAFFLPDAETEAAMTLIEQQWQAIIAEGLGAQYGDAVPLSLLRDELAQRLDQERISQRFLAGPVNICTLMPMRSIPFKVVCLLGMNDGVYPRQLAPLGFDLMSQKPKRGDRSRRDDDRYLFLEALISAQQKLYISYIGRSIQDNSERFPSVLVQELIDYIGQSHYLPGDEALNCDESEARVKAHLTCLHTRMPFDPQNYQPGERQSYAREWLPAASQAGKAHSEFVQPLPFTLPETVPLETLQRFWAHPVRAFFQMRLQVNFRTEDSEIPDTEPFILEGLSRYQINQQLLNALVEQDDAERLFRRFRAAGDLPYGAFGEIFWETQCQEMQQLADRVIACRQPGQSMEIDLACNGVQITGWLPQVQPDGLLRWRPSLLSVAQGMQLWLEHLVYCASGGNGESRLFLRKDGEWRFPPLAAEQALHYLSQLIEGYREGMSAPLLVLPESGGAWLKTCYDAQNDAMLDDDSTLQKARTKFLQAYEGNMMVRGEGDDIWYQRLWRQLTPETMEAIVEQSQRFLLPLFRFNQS
T3 sequence (P08394 whole entry): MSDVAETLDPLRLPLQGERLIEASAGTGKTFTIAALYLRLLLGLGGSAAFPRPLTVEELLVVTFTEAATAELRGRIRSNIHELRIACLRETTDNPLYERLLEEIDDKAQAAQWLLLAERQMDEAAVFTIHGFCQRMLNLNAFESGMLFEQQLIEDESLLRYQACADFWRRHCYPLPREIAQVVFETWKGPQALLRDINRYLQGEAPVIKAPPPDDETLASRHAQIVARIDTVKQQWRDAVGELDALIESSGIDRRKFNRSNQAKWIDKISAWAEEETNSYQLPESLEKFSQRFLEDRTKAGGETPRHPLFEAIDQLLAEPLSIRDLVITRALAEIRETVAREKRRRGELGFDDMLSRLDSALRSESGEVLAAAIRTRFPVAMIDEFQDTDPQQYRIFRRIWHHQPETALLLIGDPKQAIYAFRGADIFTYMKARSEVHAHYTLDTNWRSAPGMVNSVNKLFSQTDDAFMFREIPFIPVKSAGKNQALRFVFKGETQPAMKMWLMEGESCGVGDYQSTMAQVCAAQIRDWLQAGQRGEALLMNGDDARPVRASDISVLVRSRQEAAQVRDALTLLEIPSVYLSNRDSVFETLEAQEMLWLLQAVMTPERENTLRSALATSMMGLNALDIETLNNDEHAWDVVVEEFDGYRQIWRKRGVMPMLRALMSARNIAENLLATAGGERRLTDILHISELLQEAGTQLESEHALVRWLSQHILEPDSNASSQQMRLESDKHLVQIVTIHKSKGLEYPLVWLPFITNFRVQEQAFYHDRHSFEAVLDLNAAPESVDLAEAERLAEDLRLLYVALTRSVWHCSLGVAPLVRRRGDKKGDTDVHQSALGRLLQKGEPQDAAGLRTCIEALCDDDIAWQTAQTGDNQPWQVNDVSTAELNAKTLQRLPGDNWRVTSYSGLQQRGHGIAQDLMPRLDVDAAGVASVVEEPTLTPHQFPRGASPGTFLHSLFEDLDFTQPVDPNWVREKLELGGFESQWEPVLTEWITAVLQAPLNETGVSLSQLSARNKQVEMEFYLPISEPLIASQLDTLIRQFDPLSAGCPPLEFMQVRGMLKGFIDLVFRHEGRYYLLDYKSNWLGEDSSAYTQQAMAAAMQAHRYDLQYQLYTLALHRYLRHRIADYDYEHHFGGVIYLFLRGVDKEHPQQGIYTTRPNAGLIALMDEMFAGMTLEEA

P388/ADR = test: cells; assay type: functional; conditions: Mus musculus
P388 = test: cells; assay type: functional; conditions: Mus musculus
SN12K1 = test: cells; assay type: functional; conditions: Homo sapiens
Protein RecA = target: T4, Protein RecA (Mycobacterium tuberculosis, UniProt P9WHJ3); test: Fluorescence Cell-Free Homogeneous Dose Retest to Identify Inhibitors of RecA-Intein Splicing Activity. [Related pubchem assays (depositor defined):AID2097, AID2223, AID489010, AID492950]; assay type: functional
T4 sequence (P9WHJ3 whole entry): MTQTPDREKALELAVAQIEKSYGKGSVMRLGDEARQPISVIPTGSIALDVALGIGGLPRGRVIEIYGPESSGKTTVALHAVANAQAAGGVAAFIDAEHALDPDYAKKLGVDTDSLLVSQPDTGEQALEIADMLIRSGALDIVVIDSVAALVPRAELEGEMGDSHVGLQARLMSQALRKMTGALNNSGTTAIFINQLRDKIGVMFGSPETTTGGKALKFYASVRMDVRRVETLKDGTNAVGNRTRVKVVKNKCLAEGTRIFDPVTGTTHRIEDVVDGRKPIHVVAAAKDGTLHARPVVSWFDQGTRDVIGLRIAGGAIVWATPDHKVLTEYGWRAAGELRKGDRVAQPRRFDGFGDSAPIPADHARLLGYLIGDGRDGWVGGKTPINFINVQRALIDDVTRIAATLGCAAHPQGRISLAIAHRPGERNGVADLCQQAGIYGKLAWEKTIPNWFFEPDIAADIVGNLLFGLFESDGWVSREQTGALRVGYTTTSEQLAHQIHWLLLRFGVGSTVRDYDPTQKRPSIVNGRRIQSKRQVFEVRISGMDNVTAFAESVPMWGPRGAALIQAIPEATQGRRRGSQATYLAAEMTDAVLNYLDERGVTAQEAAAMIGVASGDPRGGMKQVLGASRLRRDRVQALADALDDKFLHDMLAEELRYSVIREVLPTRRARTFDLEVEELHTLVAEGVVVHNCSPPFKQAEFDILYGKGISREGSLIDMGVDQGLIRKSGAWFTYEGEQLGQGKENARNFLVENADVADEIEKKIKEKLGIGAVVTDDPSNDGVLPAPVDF

[7] = target: T5, Replicative DNA helicase DnaB (Mycobacterium tuberculosis, UniProt P9WMR3); test: DnaB intein splicing inhibitors, dose response, biochemical, cell-free fluorescence (AID 449749); assay type: functional
T5 sequence (P9WMR3 whole entry): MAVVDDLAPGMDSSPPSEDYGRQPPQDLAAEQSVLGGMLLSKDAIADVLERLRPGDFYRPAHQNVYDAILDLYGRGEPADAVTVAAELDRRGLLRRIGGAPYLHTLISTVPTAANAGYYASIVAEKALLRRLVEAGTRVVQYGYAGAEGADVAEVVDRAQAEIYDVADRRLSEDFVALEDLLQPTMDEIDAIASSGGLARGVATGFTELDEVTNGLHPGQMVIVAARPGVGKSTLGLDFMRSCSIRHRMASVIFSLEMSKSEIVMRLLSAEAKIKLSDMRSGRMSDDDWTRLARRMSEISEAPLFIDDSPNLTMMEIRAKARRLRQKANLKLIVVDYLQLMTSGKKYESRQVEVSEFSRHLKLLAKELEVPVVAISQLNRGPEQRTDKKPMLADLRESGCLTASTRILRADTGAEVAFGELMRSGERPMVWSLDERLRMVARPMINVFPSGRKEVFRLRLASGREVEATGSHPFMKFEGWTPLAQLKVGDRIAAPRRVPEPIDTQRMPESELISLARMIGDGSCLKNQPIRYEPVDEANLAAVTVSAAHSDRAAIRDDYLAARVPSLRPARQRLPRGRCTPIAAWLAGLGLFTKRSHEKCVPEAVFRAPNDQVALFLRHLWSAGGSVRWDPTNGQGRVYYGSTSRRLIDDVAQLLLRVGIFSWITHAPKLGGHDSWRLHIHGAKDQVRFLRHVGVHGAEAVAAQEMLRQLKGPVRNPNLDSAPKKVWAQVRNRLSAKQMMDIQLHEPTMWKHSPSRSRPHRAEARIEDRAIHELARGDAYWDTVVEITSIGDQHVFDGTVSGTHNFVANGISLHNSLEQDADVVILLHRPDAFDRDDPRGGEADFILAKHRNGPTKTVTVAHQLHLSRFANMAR

## O=C(NC(=S)Nc1ccccc1Cl)c1cncc(Br)c1
[1]
  IC50: > 66 µM (inactive)
[2]
  IC50: > 66 µM (inactive)

## C=CCn1cc(C(=O)NCCCN(CC)CC)c(=O)c2cc(S(=O)(=O)N3CCC(C)CC3)ccc21
[3]
  IC50: 13.2 µM (active)

## O=C(OCC(=O)C12CC3CC(CC(C3)C1)C2)c1ccc(O)cc1O
[4]
  CC50: > 40 µM (active)
[5]
  AC50: 24.5 µM (active)

## Cc1cccc(C2c3[nH]c4ccccc4c3CCN2C(=O)c2cc3c(nc2O)CCCC3)n1 (configuration not stated)
[3]
  IC50: 11.2 µM (active)

## Oc1cccc(C(O)CNCc2ccc(OCc3ccc(Cl)cc3Cl)cc2)c1 (configuration not stated)
[3]
  IC50: 1.82 µM (active)
[6]
  AC50: 3.69 µM (active)

## Cc1ccc(S(=O)(=O)Oc2ccc(/C=C3/C(=N)N4C(=NC3=O)SN=C4S(C)(=O)=O)cc2)cc1
[3]
  IC50: 13.8 µM (active)

## CCc1cn([C@H]2C[C@H](O)[C@@H](CO)O2)c(=O)[nH]c1=O [EDOXUDINE]
Exodeoxyribonuclease V
  IC50: > 119 µM (inactive) and > 118 µM (inactive)

## O=C(/C=C/c1ccccc1)CCN1CCOCC1
P388/ADR
  GI50: 2.43 µM (inactive)
P388
  GI50: 2.81 µM (inactive)
[5]
  AC50: 2.94 µM (active)
SN12K1
  GI50: 16.5 µM (inactive)

## COc1ccc(OC)c(NC(=O)Nc2ccc(O)c3ccccc23)c1
[5]
  AC50: 0.434 µM (active)
Protein RecA
  EC50: 0.152 µM (active)
[7]
  AC50: 11.5 µM (active)
